Data reported in patent EP4786487A1, “PEPTIDE” (Peptidream Inc, priority 2023, dated 2025).
Where two headings read alike, the source gives them in different places. Starred links: 1 amine or outer side, 2 acyl side, 3 side chain; linkers in the order of their positions; H or OH if unused. Positions of bridges follow the written chain, without caps; N, C: chain ends. Non-standard residues stand in square brackets, D forms with d. Residues, ends and D or L forms follow the SMILES beside them. Groups on a side chain read outwards from the residue. *: point of attachment. Phe(4-(4-pyridyl)) = N[C@@H](Cc1ccc(-c2ccncc2)cc1)C(=O)O; Phe(3-OCH2COOH) = N[C@@H](Cc1cccc(OCC(=O)O)c1)C(=O)O; Piperidine(4-CH2CH2CONH2) = NC(=O)CCC1CCN(*)CC1; Trp(6-OH) = N[C@@H](Cc1c[nH]c2cc(O)ccc12)C(=O)O; Phe(4-CONH2) = NC(=O)c1ccc(C[C@H](N)C(=O)O)cc1; Phe(4-COOH) = N[C@@H](Cc1ccc(C(=O)O)cc1)C(=O)O; Trp(7-aza) = N[C@@H](Cc1c[nH]c2ncccc12)C(=O)O; Piperazinyl(4-CH2COOH) = O=C(O)CN1CCN(*)CC1; Bip = N[C@@H](Cc1ccc(-c2ccccc2)cc1)C(=O)O; Gly(decyl) = CCCCCCCCCC[C@H](N)C(=O)O; Gly(N(CH2)3COOH) = O=C(O)CCCNCC(=O)O; X1 = CCCCCCC[C@H](N[*:1])C(=O)[*:2]; NMeCha = CN[C@@H](CC1CCCCC1)C(=O)O; NMeF = CN[C@@H](Cc1ccccc1)C(=O)O; NMeE = CN[C@@H](CCC(=O)O)C(=O)O; Cha = N[C@@H](CC1CCCCC1)C(=O)O; NMeD = CN[C@@H](CC(=O)O)C(=O)O; Carboxymethyl = O=C(O)C*; NMeA = CN[C@@H](C)C(=O)O; CO = O=C([*:1])[*:2]; Sar = CNCC(=O)O

Legend:
Format in all cases: cell-based
GDF-11 = molecular target: T1, GDF-11 (Homo sapiens, UniProt O95390); assay: Reporter gene assay for myostatin signaling in HepG2 cell line, Evaluation Procedure (1), GDF-11 inhibition; details: read-out: IC50 (Luciferase) GDF-11 HepG2
T1 construct: purchased R&D systems 1958-GD-G8/CF
T1 sequence (O95390 299-407): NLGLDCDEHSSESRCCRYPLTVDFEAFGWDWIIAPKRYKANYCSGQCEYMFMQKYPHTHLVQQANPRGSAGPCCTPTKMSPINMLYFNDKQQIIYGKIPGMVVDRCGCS
In short: (§1)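 HepG2 cells transfected with pGL3(CAGA)12-luciferase reporter, serum-starved in 0.1% BSA medium, then stimulated with myostatin or GDF-11 plus 4-fold peptide dilutions (0.006–100 nmol/L for myostatin, 0.12–2000 nmol/L for GDF-11) for 20–24 h at 37 °C. Luminescence read with One-Glo; IC50 calculated.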

Myostatin [1] = molecular target: T2, Myostatin (Homo sapiens, UniProt O14793); assay: Reporter gene assay for myostatin signaling in HepG2 cell line, Evaluation Procedure (1), myostatin inhibition; details: read-out: IC50 (Luciferase) Myostatin HepG2
T2 construct: active myostatin (also called mature myostatin) is a homodimer consisting of two C-terminal growth factor domains; purchased R&D systems 788-G8/CF
T2 sequence (O14793 267-375): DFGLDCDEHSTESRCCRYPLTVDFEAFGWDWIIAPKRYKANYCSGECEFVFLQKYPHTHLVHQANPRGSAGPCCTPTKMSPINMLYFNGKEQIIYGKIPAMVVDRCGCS
In short: as §1

Myostatin [2] = assay: as above; details: GDF-11 IC50 versus Myostatin IC50
In short: as §1

SMILES	IC50 (GDF-11; Method A: GDF-11 10 ng/mL) [nM]	IC50 (Myostatin [1]; Method A: Myostatin 10 ng/mL) [nM]	Selectivity (Myostatin [2]; Method A)	IC50 (GDF-11; Method D: GDF-11 1.5 ng/mL) [nM]	IC50 (Myostatin [1]; Method D: Myostatin 1.5 ng/mL) [nM]	Selectivity (Myostatin [2]; Method D)
CC[C@H](C)[C@@H]1NC(=O)[C@H](Cc2ccccc2)N(C)C(=O)[C@H](Cc2ccc(O)cc2)NC(=O)[C@H](Cc2c[nH]c3ccccc23)NC(=O)[C@H](CO)NC(=O)[C@H](C)NC(=O)CSC[C@H](C(=O)O)NC(=O)[C@H](Cc2ccccc2)N(C)C(=O)[C@H](C)N(C)C(=O)[C@H](CC(C)C)NC(=O)[C@H](Cc2ccccc2)N(C)C(=O)[C@H](CCCNC(=N)N)NC(=O)[C@H](Cc2ccc(C(=O)O)cc2)NC(=O)[C@H](Cc2ccc(O)cc2)NC(=O)CN(C)C1=O [Myostatin_99_v175] ({CH2CO}-ASWY[NMeF]I[Sar]Y[Phe(4-COOH)]R[NMeF]L[NMeA][NMeF][dC]-OH; thioether N-15)	399	16.4	24			
CCCCCCC[C@@H]1NC(=O)[C@H](Cc2ccccc2)N(C)C(=O)[C@H](CCCNC(=N)N)NC(=O)[C@H](Cc2ccc(C(=O)O)cc2)NC(=O)[C@H](Cc2cccc(OCC(=O)O)c2)NC(=O)CN(C)C(=O)[C@H]([C@@H](C)CC)NC(=O)[C@H](Cc2ccccc2)N(C)C(=O)[C@H](Cc2ccc(O)cc2)NC(=O)[C@H](Cc2c[nH]c3ccccc23)NC(=O)[C@H](CO)NC(=O)CN(CCCC(=O)O)C(=O)CSC[C@H](C(=O)O)NC(=O)[C@H](Cc2ccccc2)N(C)C(=O)[C@H](C)N(C)C1=O [Myostatin_99_v161] ({CH2CO}-[Gly(N(CH2)3COOH)]SWY[NMeF]I[Sar][Phe(3-OCH2COOH)][Phe(4-COOH)]R[NMeF][X1][NMeA][NMeF][dC]-OH; thioether N-15)	1240	8.2	151			
CCCCCCC[C@@H]1NC(=O)[C@H](Cc2ccccc2)N(C)C(=O)[C@H](CCCNC(=N)N)NC(=O)[C@H](Cc2ccc(C(=O)O)cc2)NC(=O)[C@H](Cc2cccc(OCC(=O)O)c2)NC(=O)[C@H](C)N(C)C(=O)[C@H]([C@@H](C)CC)NC(=O)[C@H](Cc2ccccc2)N(C)C(=O)[C@H](Cc2ccc(O)cc2)NC(=O)[C@H](Cc2c[nH]c3ccccc23)NC(=O)[C@H](CO)NC(=O)CN(CCCC(=O)O)C(=O)CSC[C@H](C(=O)O)NC(=O)[C@H](Cc2ccccc2)N(C)C(=O)[C@H](C)N(C)C1=O [Myostatin_99_v163] ({CH2CO}-[Gly(N(CH2)3COOH)]SWY[NMeF]I[NMeA][Phe(3-OCH2COOH)][Phe(4-COOH)]R[NMeF][X1][NMeA][NMeF][dC]-OH; thioether N-15)	1000	3.6	279			
CCCCCCCCCC[C@@H]1NC(=O)[C@H](Cc2ccccc2)N(C)C(=O)[C@H](CCCNC(=N)N)NC(=O)[C@H](Cc2ccc(C(=O)O)cc2)NC(=O)[C@H](Cc2cccc(OCC(=O)O)c2)NC(=O)[C@H]2CCCN2C(=O)[C@H]([C@@H](C)CC)NC(=O)[C@H](Cc2ccccc2)N(C)C(=O)[C@H](Cc2ccc(O)cc2)NC(=O)[C@H](Cc2c[nH]c3cc(O)ccc23)NC(=O)[C@H](C)NC(=O)[C@H](C)NC(=O)CSC[C@H](C(=O)N2CCC(CCC(N)=O)CC2)NC(=O)[C@H](Cc2ccccc2)N(C)C(=O)[C@H](CCC(=O)O)N(C)C1=O [Myostatin_99_v382] ({CH2CO}-AA[Trp(6-OH)]Y[NMeF]I[dP][Phe(3-OCH2COOH)][Phe(4-COOH)]R[NMeF][Gly(decyl)][NMeE][NMeF][dC]-{Piperidine(4-CH2CH2CONH2)}; thioether N-15)				29.6	0.04	711.775
CC[C@H](C)[C@@H]1NC(=O)[C@H](Cc2ccccc2)N(C)C(=O)[C@H](Cc2ccc(O)cc2)NC(=O)[C@H](Cc2ccc(-c3ccccc3)cc2)NC(=O)[C@H](C)NC(=O)CN(CCCC(=O)O)C(=O)CSC[C@H](C(=O)O)NC(=O)[C@H](Cc2ccccc2)N(C)C(=O)[C@H](C)N(C)C(=O)[C@H](CC(C)C)NC(=O)[C@H](Cc2ccccc2)N(C)C(=O)[C@H](CCCNC(=N)N)NC(=O)[C@H](Cc2ccc(OCC(=O)O)cc2)NC(=O)[C@H](Cc2cccc(OCC(=O)O)c2)NC(=O)CN(C)C1=O [Myostatin_99_v86] ({CH2CO}-[Gly(N(CH2)3COOH)]A[Bip]Y[NMeF]I[Sar][Phe(3-OCH2COOH)]Y(Carboxymethyl)R[NMeF]L[NMeA][NMeF][dC]-OH; thioether N-15)	1650	10.4	159			
CC[C@H](C)[C@@H]1NC(=O)[C@H](Cc2ccccc2)N(C)C(=O)[C@H](Cc2ccc(O)cc2)NC(=O)[C@H](Cc2c[nH]c3ccccc23)NC(=O)[C@H](C)NC(=O)CN(CCCC(=O)O)C(=O)CSC[C@H](C(=O)O)NC(=O)[C@H](Cc2ccccc2)N(C)C(=O)[C@H](C)N(C)C(=O)[C@H](CC(C)C)NC(=O)[C@H](Cc2ccccc2)N(C)C(=O)[C@H](CCCNC(=N)N)NC(=O)[C@H](Cc2ccc(C(=O)O)cc2)NC(=O)[C@H](Cc2cccc(OCC(=O)O)c2)NC(=O)[C@H](C)N(C)C1=O [Myostatin_99_v144] ({CH2CO}-[Gly(N(CH2)3COOH)]AWY[NMeF]I[NMeA][Phe(3-OCH2COOH)][Phe(4-COOH)]R[NMeF]L[NMeA][NMeF][dC]-OH; thioether N-15)	2760	16.3	169			
CC[C@H](C)[C@@H]1NC(=O)[C@H](Cc2ccccc2)N(C)C(=O)[C@H](Cc2ccc(O)cc2)NC(=O)[C@H](Cc2c[nH]c3ncccc23)NC(=O)[C@H](C)NC(=O)CN(CCCC(=O)O)C(=O)CSC[C@H](C(=O)O)NC(=O)[C@H](Cc2ccccc2)N(C)C(=O)[C@H](C)N(C)C(=O)[C@H](CC(C)C)NC(=O)[C@H](Cc2ccccc2)N(C)C(=O)[C@H](CCCNC(=N)N)NC(=O)[C@H](Cc2ccc(C(N)=O)cc2)NC(=O)[C@H](Cc2ccccc2)NC(=O)CN(C)C1=O [Myostatin_99_v44] ({CH2CO}-[Gly(N(CH2)3COOH)]A[Trp(7-aza)]Y[NMeF]I[Sar]F[Phe(4-CONH2)]R[NMeF]L[NMeA][NMeF][dC]-OH; thioether N-15)	810	8.4	96			
CCCCCCC[C@@H]1NC(=O)[C@H](CC2CCCCC2)NC(=O)[C@H](CCCNC(=N)N)NC(=O)[C@H](Cc2ccc(C(=O)O)cc2)NC(=O)[C@H](CCCCNC(=O)N2CCN(CC(=O)O)CC2)NC(=O)CN(C)C(=O)[C@H]([C@@H](C)CC)NC(=O)[C@H](CC2CCCCC2)N(C)C(=O)[C@H](Cc2ccc(O)cc2)NC(=O)[C@H](Cc2c[nH]c3ccccc23)NC(=O)[C@@H](CCC(=O)O)NC(=O)[C@H](C)NC(=O)CSC[C@H](C(=O)N2CCN(CC(=O)O)CC2)NC(=O)[C@H](Cc2ccccc2)N(C)C(=O)[C@H](C)N(C)C1=O [Myostatin_99_v249] ({CH2CO}-A[dE]WY[NMeCha]I[Sar]K([CO-Piperazinyl(4-CH2COOH)])[Phe(4-COOH)]R[Cha][X1][NMeA][NMeF][dC]-{Piperazinyl(4-CH2COOH)}; thioether N-15)	119	0.5	237			
CC[C@H](C)[C@@H]1NC(=O)[C@H](Cc2ccccc2)N(C)C(=O)[C@H](Cc2ccc(O)cc2)NC(=O)[C@H](Cc2ccc(-c3ccncc3)cc2)NC(=O)[C@H](C)NC(=O)[C@H](CC(=O)O)N(C)C(=O)CSC[C@H](C(=O)O)NC(=O)[C@H](Cc2ccccc2)N(C)C(=O)[C@H](C)N(C)C(=O)[C@H](CC(C)C)NC(=O)[C@H](Cc2ccccc2)N(C)C(=O)[C@H](CCCNC(=N)N)NC(=O)[C@H](Cc2ccc(OCC(=O)O)cc2)NC(=O)[C@H](Cc2cccc(OCC(=O)O)c2)NC(=O)CN(C)C1=O [Myostatin_99_v96] ({CH2CO}-[NMeD]A[Phe(4-(4-pyridyl))]Y[NMeF]I[Sar][Phe(3-OCH2COOH)]Y(Carboxymethyl)R[NMeF]L[NMeA][NMeF][dC]-OH; thioether N-15)	26300	88.8	296			
CC[C@H](C)[C@@H]1NC(=O)[C@H](Cc2ccccc2)N(C)C(=O)[C@H](Cc2ccc(O)cc2)NC(=O)[C@H](Cc2ccc(-c3ccccc3)cc2)NC(=O)[C@H](C)NC(=O)CN(CCCC(=O)O)C(=O)CSC[C@H](C(=O)O)NC(=O)[C@H](Cc2ccccc2)N(C)C(=O)[C@H](C)N(C)C(=O)[C@H](CC(C)C)NC(=O)[C@H](Cc2ccccc2)N(C)C(=O)[C@H](CCCNC(=N)N)NC(=O)[C@H](Cc2ccc(OCC(=O)O)cc2)NC(=O)[C@H](Cc2cccc(OCC(=O)O)c2)NC(=O)[C@H](C)N(C)C1=O [Myostatin_99_v85] ({CH2CO}-[Gly(N(CH2)3COOH)]A[Bip]Y[NMeF]I[NMeA][Phe(3-OCH2COOH)]Y(Carboxymethyl)R[NMeF]L[NMeA][NMeF][dC]-OH; thioether N-15)	3370	13.5	250			
